Calls of active or inactive are those of the source. The rule behind the calls is not given here.
How the values were obtained:
[1] = tested on: Ca-Ski; assay: Induction of cytosolic cytochrome c accumulation in human CaSki cells at 1 mM by SDS-PAGE; type: functional, cell-based; details: TDE = time-dependent effect
[2] = tested on: Ca-Ski; assay: Decrease in CDK2 protein expression in human CaSki cells at 1 mM by Western blot; type: functional, cell-based
[3] = tested on: Ca-Ski; assay: Increase in p53 protein level in human CaSki cells at 1 mM after 24 hrs by Western blot; type: functional, cell-based
[4] = tested on: HeLa; assay: Effect on Bcl-Xl protein expression in human HeLa cells at 1 mM by Western blot; type: functional, cell-based
[5] = tested on: Ca-Ski; assay: Induction of apoptosis in human CaSki cells at 1 mM after 8 hrs by TUNEL/DAPI double staining; type: functional
[6] = tested on: HeLa; assay: Cell cycle arrest in human HeLa cells assessed as accumulation at G0/G1 phase after 8 hrs by flow cytometry; type: functional
[7] = tested on: Ca-Ski; assay: Decrease in Bcl2 protein expression in human CaSki cells at 1 mM by Western blot; type: functional, cell-based
[8] = tested on: Ca-Ski; assay: Induction of apoptosis in human CaSki cells assessed as nuclear DNA fragmentation at 1 mM after 48 hrs by TUNEL/DAPI double staining; type: functional, cell-based
[9] = tested on: HeLa; assay: Decrease in Bcl2 protein expression in human HeLa cells at 1 mM by Western blot; type: functional, cell-based
[10] = tested on: Ca-Ski; assay: Cell cycle arrest in human CaSki cells assessed as accumulation at S phase after 48 hrs by flow cytometry; type: functional
[11] = tested on: Ca-Ski; assay: Cell cycle arrest in human CaSki cells assessed as accumulation at G0/G1 phase after 48 hrs by flow cytometry; type: functional
[12] = tested on: HeLa; assay: Cell cycle arrest in human HeLa cells assessed as accumulation at S phase after 24 hrs by flow cytometry; type: functional
[13] = tested on: Ca-Ski; assay: Cytotoxicity against human CaSki cells by trypan blue exclusion method; type: functional, cell-based; details: TDE = time-dependent effect
[14] = tested on: Ca-Ski; assay: Cell cycle arrest in human CaSki cells assessed as accumulation at S phase after 24 hrs by flow cytometry; type: functional
[15] = tested on: HeLa; assay: Induction of apoptosis in human HeLa cells at 1 mM after 48 hrs by TUNEL/DAPI double staining; type: functional
[16] = tested on: Ca-Ski; assay: Effect on Bcl-Xl protein expression in human CaSki cells at 1 mM by Western blot; type: functional, cell-based
[17] = tested on: HeLa; assay: Decrease in CDK2 protein expression in human HeLa cells at 1 mM by Western blot; type: functional, cell-based
[18] = tested on: Ca-Ski; assay: Decrease in cyclin B protein expression in human CaSki cells at 1 mM by Western blot; type: functional, cell-based
[19] = tested on: HeLa; assay: Cell cycle arrest in human HeLa cells assessed as accumulation at S phase after 8 hrs by flow cytometry; type: functional
[20] = tested on: HeLa; assay: Cell cycle arrest in human HeLa cells assessed as accumulation at G0/G1 phase after 48 hrs by flow cytometry; type: functional
[21] = tested on: Ca-Ski; assay: Cell cycle arrest in human CaSki cells assessed as accumulation at G2/M phase after 8 hrs by flow cytometry; type: functional
[22] = tested on: Ca-Ski; assay: Induction of apoptosis in human CaSki cells assessed as caspase 9 activation by fluorogenic substrate based assay after 48 hrs; type: functional, cell-based
[23] = tested on: Ca-Ski; assay: Decrease in CDK1 protein expression in human CaSki cells at 1 mM by Western blot; type: functional, cell-based
[24] = tested on: Ca-Ski; assay: Cell cycle arrest in human CaSki cells assessed as accumulation at G0/G1 phase after 24 hrs by flow cytometry; type: functional
[25] = tested on: HeLa; assay: Cell cycle arrest in human HeLa cells assessed as accumulation at G0/G1 phase after 24 hrs by flow cytometry; type: functional
[26] = tested on: HeLa; assay: Cytotoxicity against human HeLa cells by trypan blue exclusion method; type: functional, cell-based
[27] = tested on: HeLa; assay: Induction of apoptosis in human HeLa cells assessed as nuclear DNA fragmentation at 1 mM after 48 hrs by TUNEL/DAPI double staining; type: functional, cell-based
[28] = tested on: HeLa; assay: Induction of apoptosis in human HeLa cells assessed as caspase 3 activation by fluorogenic substrate based assay after 24 hrs; type: functional, cell-based
[29] = tested on: HeLa; assay: Increase in Bax protein expression in human HeLa cells at 1 mM by Western blot; type: functional, cell-based
[30] = tested on: Ca-Ski; assay: Induction of apoptosis in human CaSki cells assessed as proteolytic activation of caspase 9 at 1 mM by SDS-PAGE; type: functional, cell-based
[31] = tested on: HeLa; assay: Decrease in cyclin B protein expression in human HeLa cells at 1 mM by Western blot; type: functional, cell-based
[32] = tested on: HeLa; assay: Cell cycle arrest in human HeLa cells assessed as accumulation at G2/M phase after 24 hrs by flow cytometry; type: functional
[33] = tested on: HeLa; assay: Induction of apoptosis in human HeLa cells assessed as proteolytic activation of caspase 9 at 1 mM by SDS-PAGE; type: functional, cell-based
[34] = tested on: HeLa; assay: Decrease in cyclin A protein expression in human HeLa cells at 1 mM by Western blot; type: functional, cell-based
[35] = tested on: HeLa; assay: Induction of cytosolic cytochrome c accumulation in human HeLa cells at 1 mM by SDS-PAGE; type: functional, cell-based; details: TDE = time-dependent effect
[36] = tested on: Ca-Ski; assay: Induction of apoptosis in human CaSki cells at 1 mM after 48 hrs by TUNEL/DAPI double staining; type: functional
[37] = tested on: HeLa; assay: Induction of apoptosis in human HeLa cells assessed as proteolytic activation of caspase 3 at 1 mM by SDS-PAGE; type: functional, cell-based
[38] = tested on: HeLa; assay: Cell cycle arrest in human HeLa cells assessed as accumulation at S phase after 48 hrs by flow cytometry; type: functional
[39] = tested on: HeLa; assay: Decrease in CDK1 protein expression in human HeLa cells at 1 mM by Western blot; type: functional, cell-based
[40] = tested on: HeLa; assay: Induction of apoptosis in human HeLa cells assessed as chromatin condensation at 1 mM after 48 hrs by TUNEL/DAPI double staining; type: functional, cell-based
[41] = tested on: Ca-Ski; assay: Cell cycle arrest in human CaSki cells assessed as accumulation at G0/G1 phase after 8 hrs by flow cytometry; type: functional
[42] = tested on: HeLa; assay: Induction of apoptosis in human HeLa cells assessed as caspase 9 activation by fluorogenic substrate based assay after 48 hrs; type: functional, cell-based
[43] = tested on: Ca-Ski; assay: Induction of apoptosis in human CaSki cells at 1 mM after 24 hrs by TUNEL/DAPI double staining; type: functional
[44] = tested on: HeLa; assay: Increase in p53 protein level in human HeLa cells at 1 mM after 24 hrs by Western blot; type: functional, cell-based
[45] = tested on: HeLa; assay: Cell cycle arrest in human HeLa cells assessed as accumulation at G2/M phase after 48 hrs by flow cytometry; type: functional
[46] = tested on: Ca-Ski; assay: Cell cycle arrest in human CaSki cells assessed as accumulation at G2/M phase after 24 hrs by flow cytometry; type: functional
[47] = tested on: Ca-Ski; assay: Decrease in cyclin A protein expression in human CaSki cells at 1 mM by Western blot; type: functional, cell-based
[48] = tested on: HeLa; assay: Induction of apoptosis in human HeLa cells at 1 mM after 24 hrs by TUNEL/DAPI double staining; type: functional
[49] = tested on: Ca-Ski; assay: Cell cycle arrest in human CaSki cells assessed as accumulation at S phase after 8 hrs by flow cytometry; type: functional
[50] = tested on: HeLa; assay: Induction of apoptosis in human HeLa cells at 1 mM after 8 hrs by TUNEL/DAPI double staining; type: functional
[51] = tested on: Ca-Ski; assay: Induction of apoptosis in human CaSki cells assessed as caspase 3 activation by fluorogenic substrate based assay after 24 hrs; type: functional, cell-based
[52] = tested on: Ca-Ski; assay: Induction of apoptosis in human CaSki cells assessed as chromatin condensation at 1 mM after 48 hrs by TUNEL/DAPI double staining; type: functional, cell-based
[53] = tested on: Ca-Ski; assay: Cell cycle arrest in human CaSki cells assessed as accumulation at G2/M phase after 48 hrs by flow cytometry; type: functional
[54] = tested on: Ca-Ski; assay: Increase in p53 protein level in human CaSki cells at 1 mM up to 48 hrs by Western blot; type: functional, cell-based
[55] = tested on: Ca-Ski; assay: Induction of apoptosis in human CaSki cells assessed as proteolytic activation of caspase 3 at 1 mM by SDS-PAGE; type: functional, cell-based
[56] = tested on: HeLa; assay: Cell cycle arrest in human HeLa cells assessed as accumulation at G2/M phase after 8 hrs by flow cytometry; type: functional
[57] = tested on: Ca-Ski; assay: Increase in Bax protein expression in human CaSki cells at 1 mM by Western blot; type: functional, cell-based

SMILES: CCCCNC(=O)Cc1ccc(F)cc1
- Activity [1]: tde
- Activity [2]: Active
- Activity [3]: Active
- Activity [4]: inactive
- Activity [5]: 5.6%
- Activity [6]: 31.2%
- Activity [7]: Active
- Activity [8]: Active
- Activity [9]: Active
- Activity [10]: 19.9%
- Activity [11]: 51.5%
- Activity [12]: 28.9%
- Activity [13]: tde
- Activity [14]: 21%
- Activity [15]: 28.2%
- Activity [16]: inactive
- Activity [17]: Active
- Activity [18]: Active
- Activity [19]: 46.9%
- Activity [20]: 30.6%
- Activity [21]: 18.6%
- Activity [22]: Active
- Activity [23]: Active
- Activity [24]: 52.7%
- Activity [25]: 42.6%
- Activity [26]: Dose-dependent effect
- Activity [27]: Active
- Activity [28]: Active
- Activity [29]: Active
- Activity [30]: Active
- Activity [31]: Active
- Activity [32]: 28.5%
- Activity [33]: Active
- Activity [34]: Active
- Activity [35]: tde
- Activity [36]: 13.2%
- Activity [37]: Active
- Activity [38]: 22.7%
- Activity [39]: Active
- Activity [40]: Active
- Activity [41]: 53.6%
- Activity [42]: Active
- Activity [43]: 6%
- Activity [44]: Active
- Activity [45]: 46.7%
- Activity [46]: 26.5%
- Activity [47]: Active
- Activity [48]: 23.6%
- Activity [49]: 27.7%
- Activity [50]: 1.9%
- Activity [51]: Active
- Activity [52]: Active
- Activity [53]: 28.6%
- Activity [54]: Active
- Activity [55]: Active
- Activity [56]: 22.1%
- Activity [57]: Active

Source: ChEMBL document CHEMBL1139328, “4-Fluoro-N-butylphenylacetamide (H6) inhibits cell growth via cell-cycle arrest and apoptosis in human cervical cancer cells” (2009)
